Measurements reported in article PMC5298231, “The Malaria Parasite's Lactate Transporter PfFNT Is the Target of Antiplasmodial Compounds Identified in Whole Cell Phenotypic Screens” (PLoS Pathogens, 2017).

Test system: erythrocytes infected with 3D7 trophozoites
Assay type: cell-based, Plasmodium falciparum
Conditions: Av 3hr; 6 μM

Which results are given for `COc1ccc2c(c1)OC(O)(C(F)(F)C(F)(F)F)CC2=O` (stereo not shown) [MMV007839]?
2-Hydroxyglutarate log2 ratio (+MMV007839/-MMV007839): -0.6103; 2-Ketoglutarate log2 ratio (+MMV007839/-MMV007839): -0.8232; 3-Phosho-D-glycerate log2 ratio (+MMV007839/-MMV007839): 0.07426; 3-Phospho-serine log2 ratio (+MMV007839/-MMV007839): -0.4035; 4-Aminobutanoate log2 ratio (+MMV007839/-MMV007839): 0.8488; 5-Phosphoribosyl-1-pyrophosphate log2 ratio (+MMV007839/-MMV007839): 0.5077; ADP log2 ratio (+MMV007839/-MMV007839): -0.7166; AMP log2 ratio (+MMV007839/-MMV007839): -0.5704; ATLS log2 ratio (+MMV007839/-MMV007839): -0.2347; ATP log2 ratio (+MMV007839/-MMV007839): -0.2177; Acetyl-CoA log2 ratio (+MMV007839/-MMV007839): -0.7235; Acetyl-L-alanine log2 ratio (+MMV007839/-MMV007839): -0.3599; Adenine log2 ratio (+MMV007839/-MMV007839): -0.8446; Arginine log2 ratio (+MMV007839/-MMV007839): 0.2396; Asparagine log2 ratio (+MMV007839/-MMV007839): -0.1753; Aspartic Acid log2 ratio (+MMV007839/-MMV007839): -0.3736; CDP log2 ratio (+MMV007839/-MMV007839): -0.5752; CDP-ethanolamine log2 ratio (+MMV007839/-MMV007839): 0.02366; CMP log2 ratio (+MMV007839/-MMV007839): -0.08882; CTP log2 ratio (+MMV007839/-MMV007839): -0.3119; Cholesteryl sulfate log2 ratio (+MMV007839/-MMV007839): -0.1335; Citrate log2 ratio (+MMV007839/-MMV007839): -0.1028; CoA log2 ratio (+MMV007839/-MMV007839): -0.556; Cyclic AMP log2 ratio (+MMV007839/-MMV007839): -0.7854; Cytidine log2 ratio (+MMV007839/-MMV007839): -0.2914; D-Glucono-1-4-lactone log2 ratio (+MMV007839/-MMV007839): 1.992; DALT log2 ratio (+MMV007839/-MMV007839): -0.8981; DEVG log2 ratio (+MMV007839/-MMV007839): -0.08263; DGLA log2 ratio (+MMV007839/-MMV007839): -0.7349; DLS log2 ratio (+MMV007839/-MMV007839): -0.6175; Deoxycytidine log2 ratio (+MMV007839/-MMV007839): 1.594; Dihydroorotate log2 ratio (+MMV007839/-MMV007839): -1.064; ESFG log2 ratio (+MMV007839/-MMV007839): -0.07747; EVGG log2 ratio (+MMV007839/-MMV007839): -0.1694; Erythrose 4-phosphate log2 ratio (+MMV007839/-MMV007839): -0.2579; FAD log2 ratio (+MMV007839/-MMV007839): -0.4239; FMN log2 ratio (+MMV007839/-MMV007839): -0.4985; Farnesyl diphosphate log2 ratio (+MMV007839/-MMV007839): -0.04123; Folate log2 ratio (+MMV007839/-MMV007839): -0.3602; Fructose-1-6-bisphosphate log2 ratio (+MMV007839/-MMV007839): 1.146; Fructose-6-Phosphate log2 ratio (+MMV007839/-MMV007839): 0.05598; GDP log2 ratio (+MMV007839/-MMV007839): -1.202; GDP-mannose log2 ratio (+MMV007839/-MMV007839): -0.4414; GMP log2 ratio (+MMV007839/-MMV007839): -1.665; GTP log2 ratio (+MMV007839/-MMV007839): -0.7051; Geranylgeranyl pyrophosphate log2 ratio (+MMV007839/-MMV007839): -0.6827; Gluconate log2 ratio (+MMV007839/-MMV007839): -0.02575; Glucose-6-Phosphate log2 ratio (+MMV007839/-MMV007839): -0.3489; Glutamate log2 ratio (+MMV007839/-MMV007839): -0.07518; Glutamine log2 ratio (+MMV007839/-MMV007839): 0.8027; Glutathione disulfide log2 ratio (+MMV007839/-MMV007839): -0.1266; Glutathione log2 ratio (+MMV007839/-MMV007839): -0.02749; Glyceraldehyde 3-phosphate log2 ratio (+MMV007839/-MMV007839): -0.5897; Glycerone phosphate log2 ratio (+MMV007839/-MMV007839): 0.4029; HLD log2 ratio (+MMV007839/-MMV007839): -0.9223; HVDD log2 ratio (+MMV007839/-MMV007839): -1.392; Histidine log2 ratio (+MMV007839/-MMV007839): 0.6908; Homoserine log2 ratio (+MMV007839/-MMV007839): 0.249; Hydroxy-L-proline log2 ratio (+MMV007839/-MMV007839): 0.1081; Hypoxanthine log2 ratio (+MMV007839/-MMV007839): 0.2683; IDP log2 ratio (+MMV007839/-MMV007839): 0.1036; IMP log2 ratio (+MMV007839/-MMV007839): -0.04113; Inosine log2 ratio (+MMV007839/-MMV007839): 0.2492; Isoleucine log2 ratio (+MMV007839/-MMV007839): 0.01345; LD log2 ratio (+MMV007839/-MMV007839): 0.008648; Lactate log2 ratio (+MMV007839/-MMV007839): 2.632; Leucine log2 ratio (+MMV007839/-MMV007839): -0.1293; Lysine log2 ratio (+MMV007839/-MMV007839): 0.8307; Malate log2 ratio (+MMV007839/-MMV007839): -0.2233; Mannitol log2 ratio (+MMV007839/-MMV007839): -0.2308; Methionine log2 ratio (+MMV007839/-MMV007839): -0.1652; Myristic acid log2 ratio (+MMV007839/-MMV007839): -0.3456; N-Acetyl-glutamate log2 ratio (+MMV007839/-MMV007839): -0.8123; N-Carbamoyl-L-aspartate log2 ratio (+MMV007839/-MMV007839): -1.502; NAD+ log2 ratio (+MMV007839/-MMV007839): 0.03216; NADH log2 ratio (+MMV007839/-MMV007839): -1.72; NADP+ log2 ratio (+MMV007839/-MMV007839): -0.3346; Octoluse Bisphosphate log2 ratio (+MMV007839/-MMV007839): 1.811; Ornithine log2 ratio (+MMV007839/-MMV007839): -0.1015; Orotate log2 ratio (+MMV007839/-MMV007839): -1.466; Orotidine 5-phosphate log2 ratio (+MMV007839/-MMV007839): -1.489; Orotidine log2 ratio (+MMV007839/-MMV007839): -1.057; PAEF log2 ratio (+MMV007839/-MMV007839): -1.307; PAVH log2 ratio (+MMV007839/-MMV007839): -1.929; PD log2 ratio (+MMV007839/-MMV007839): 0.2119; PDAV log2 ratio (+MMV007839/-MMV007839): 0.3685; PE log2 ratio (+MMV007839/-MMV007839): 0.9141; PEE log2 ratio (+MMV007839/-MMV007839): -0.2135; PHF log2 ratio (+MMV007839/-MMV007839): 0.05129; PPVQ log2 ratio (+MMV007839/-MMV007839): -0.3492; PVNF log2 ratio (+MMV007839/-MMV007839): -0.8559; PVQ log2 ratio (+MMV007839/-MMV007839): 0.3164; PVQA log2 ratio (+MMV007839/-MMV007839): -1.408; Pantothenate log2 ratio (+MMV007839/-MMV007839): -0.2954; Phenylalanine log2 ratio (+MMV007839/-MMV007839): -0.1326; Phosphoenolpyruvate log2 ratio (+MMV007839/-MMV007839): 0.2604; Pipecolate log2 ratio (+MMV007839/-MMV007839): 0.1041; Proline log2 ratio (+MMV007839/-MMV007839): -0.09895; Pyridoxine log2 ratio (+MMV007839/-MMV007839): -0.07403; Pyruvate log2 ratio (+MMV007839/-MMV007839): 1.858; Ribose-5-phosphate log2 ratio (+MMV007839/-MMV007839): 0.8813; S-Adenosyl-L-homocysteine log2 ratio (+MMV007839/-MMV007839): -0.314; SDGLA log2 ratio (+MMV007839/-MMV007839): -0.3844; SFGD log2 ratio (+MMV007839/-MMV007839): -0.2955; Sedoheptoluse bisphosphate log2 ratio (+MMV007839/-MMV007839): -0.1481; Sedoheptulose-1/7-phosphate log2 ratio (+MMV007839/-MMV007839): 0.2199
